Measured values taken from patent publication US8268816B2, “Compounds for modulating integrin CD11b/CD18” (priority 2006, dated 2012).
One block for each compound: values may come before it.

How the values were obtained:
integrin CD11b/CD18 = target: T1, integrin CD11b/CD18 (Homo sapiens, UniProt P05107+P11215); assay: no-wash cell adhesion assay for agonists: K562 CD11b/CD18 cells on fibrinogen in TBS++; type: cell-based
T1 construct: expressed in transfected cells
Protocol: Maxisorp microtiter plates (96- and 384-well) were coated with 1-20 μg/mL fibrinogen (Fg) ligand in PBS^++ overnight at 4° C. Subsequently, the Fg-coated wells were washed with TBS and non-specific sites were blocked by incubation with 2% non-fat milk in TBS at room temperature for 30 min. Next, the wells were washed three times with TBS and the coated microtiter plates were used in the HTS assays.
All the adhesion assays were carried out in the screening facility at the Institute of Chemistry and Cell Biology (ICCB), Harvard Medical School using the available small molecule libraries and equipment. Actimol Timtec 1 small molecule library (6,612 compounds) has been previously described (http://iccb.med.harvard.edu/screening/compound_libraries). The small molecule library is stocked in 384-well plates at −80° C. and as sealed plates, with each well's containing a unique compound dissolved in DMSO at approximately 5 mg/mL. […] Adherent cells were quantitated using either cell viability measuring reagents or automated imaging (see below).
For quantitation of adherent cells using a cell viability measuring kit (such as MTS-based CellTiter-One (Promega), CyQuant (Molecular Probes) or Luciferase-based CellTiter-Glo (Promega)), the non-adherent cells were removed by complete aspiration using an automated liquid handling machine (ELx405, Bio-Tek Instruments, VT) and the assay reagent added according to manufacturer's instructions. For automated imaging based quantitation of adherent cells, the non-adherent cells were fixed by adding a small volume of formaldehyde (1.1% v/v final concentration) and the plates were kept inverted for an additional 1 h. Upon cell fixation, the wells were washed with TBS using automated liquid handling machine (ELx405) and the adherent cells were fluorescently labeled with DAPI (0.5 μM final in TBS with 0.1% TritonX-100) and quantitated using automated microscope (see below).
CellWorx automated microscope (Cellomics, Pa.) was set at 0.3 s exposure using DAPI filter set to capture 1-3 images per well. […] Data output files were analyzed using MS Excel. […]

integrin CD11a/CD18 = target: T2, integrin CD11a/CD18 (Homo sapiens, UniProt P05107+P20701); assay: adhesion of K562 CD11a/CD18 cells to ICAM1-Fc in TBS++; type: cell-based; conditions: dose-response, increasing amounts of small molecule
T2 construct: expressed in transfected cells; host or cells: K562 cells stably expressing CD11a/CD18
Protocol: Maxisorp microtiter plates (384-well) were coated with 1-20 μg/mL fibrinogen (Fg), 4 μg/mL iC3b or 0.375 μg/mL ICAM1-Fc ligands in PBS^++ overnight at 4° C.
For the adhesion assay in 384-well plates, the K562 cells were washed with TBS and cells (30,000/well) were transferred to the ligand-coated wells (Fg for CD11b/CD18 and ICAM1-Fc (R&D Systems, Minneapolis, Minn.) for CD11a/CD18) of microtiter plates in the assay buffer (TBS containing 1 mM each of Ca^2+ and Mg^2+ (TBS^++). Compounds were transferred to each well and the assay plates were incubated at 37° C. in the presence of small molecule compounds and were incubated with small molecules for 30 min. In order to dislodge the non-adherent cell, the assay plates were gently inverted and kept in the inverted position for 20 min at room temperature. Adherent cells were quantified using either cell viability measuring reagents or automated imaging (see below).

[1] = test system: thioglycolate-induced peritonitis mouse model; assay: thioglycolate-induced peritonitis, neutrophil influx into the peritoneum; type: in vivo, C57BL6 mice; conditions: 4 μg i.v. about 5 min after i.p. 4% thioglycolate, lavage at 12 h, flow cytometry
Protocol: The wild-type (WT) C57BL6 mice of approximately six weeks of age were purchased from Charles River Labs (Boston, Mass.). Mice were injected intraperitoneally with 1 mL of 4% w/v sterile thioglycolate (TG) (Sigma, St. Louis, […].) in PBS. Control mice were injected with PBS alone. Approximately five minutes after TG injection, 4 μg each of compounds IMB-8, -6 or -11 were administered in 0.5 mL PBS through a tail vein injection. Twelve hours post-injection, the percentage of infiltrated neutrophils in the peritoneal lavage was determined using flow cytometry. Cells from the lavage fluid were labeled with FITC-labeled anti-mouse GR1 and PE-labeled anti-mouse CD11b antibodies (BD Pharmingen, Jan Jose, Calif.) and analyzed using FACS Calibur flow cytometer.

T1 sequence (P05107 23-769, other chains not shown): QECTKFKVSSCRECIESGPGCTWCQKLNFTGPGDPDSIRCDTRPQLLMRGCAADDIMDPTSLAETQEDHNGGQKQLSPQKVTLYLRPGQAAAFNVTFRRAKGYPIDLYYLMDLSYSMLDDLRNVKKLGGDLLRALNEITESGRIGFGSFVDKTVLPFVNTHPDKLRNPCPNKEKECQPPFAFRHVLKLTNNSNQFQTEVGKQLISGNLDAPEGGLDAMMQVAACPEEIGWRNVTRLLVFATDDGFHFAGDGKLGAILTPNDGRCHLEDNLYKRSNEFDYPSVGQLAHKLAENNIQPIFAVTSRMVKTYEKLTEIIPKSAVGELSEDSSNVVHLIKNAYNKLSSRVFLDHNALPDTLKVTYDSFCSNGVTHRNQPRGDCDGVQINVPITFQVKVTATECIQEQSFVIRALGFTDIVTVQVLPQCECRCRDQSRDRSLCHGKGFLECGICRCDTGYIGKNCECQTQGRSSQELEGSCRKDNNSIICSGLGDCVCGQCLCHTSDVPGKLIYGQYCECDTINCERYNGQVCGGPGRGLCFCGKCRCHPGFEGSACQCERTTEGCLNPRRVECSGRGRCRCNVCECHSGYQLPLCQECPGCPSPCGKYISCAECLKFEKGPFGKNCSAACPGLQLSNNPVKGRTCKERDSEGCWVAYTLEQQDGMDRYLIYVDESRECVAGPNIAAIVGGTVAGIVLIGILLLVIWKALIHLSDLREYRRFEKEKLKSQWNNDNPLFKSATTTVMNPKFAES
T2 sequence (P20701 26-1170): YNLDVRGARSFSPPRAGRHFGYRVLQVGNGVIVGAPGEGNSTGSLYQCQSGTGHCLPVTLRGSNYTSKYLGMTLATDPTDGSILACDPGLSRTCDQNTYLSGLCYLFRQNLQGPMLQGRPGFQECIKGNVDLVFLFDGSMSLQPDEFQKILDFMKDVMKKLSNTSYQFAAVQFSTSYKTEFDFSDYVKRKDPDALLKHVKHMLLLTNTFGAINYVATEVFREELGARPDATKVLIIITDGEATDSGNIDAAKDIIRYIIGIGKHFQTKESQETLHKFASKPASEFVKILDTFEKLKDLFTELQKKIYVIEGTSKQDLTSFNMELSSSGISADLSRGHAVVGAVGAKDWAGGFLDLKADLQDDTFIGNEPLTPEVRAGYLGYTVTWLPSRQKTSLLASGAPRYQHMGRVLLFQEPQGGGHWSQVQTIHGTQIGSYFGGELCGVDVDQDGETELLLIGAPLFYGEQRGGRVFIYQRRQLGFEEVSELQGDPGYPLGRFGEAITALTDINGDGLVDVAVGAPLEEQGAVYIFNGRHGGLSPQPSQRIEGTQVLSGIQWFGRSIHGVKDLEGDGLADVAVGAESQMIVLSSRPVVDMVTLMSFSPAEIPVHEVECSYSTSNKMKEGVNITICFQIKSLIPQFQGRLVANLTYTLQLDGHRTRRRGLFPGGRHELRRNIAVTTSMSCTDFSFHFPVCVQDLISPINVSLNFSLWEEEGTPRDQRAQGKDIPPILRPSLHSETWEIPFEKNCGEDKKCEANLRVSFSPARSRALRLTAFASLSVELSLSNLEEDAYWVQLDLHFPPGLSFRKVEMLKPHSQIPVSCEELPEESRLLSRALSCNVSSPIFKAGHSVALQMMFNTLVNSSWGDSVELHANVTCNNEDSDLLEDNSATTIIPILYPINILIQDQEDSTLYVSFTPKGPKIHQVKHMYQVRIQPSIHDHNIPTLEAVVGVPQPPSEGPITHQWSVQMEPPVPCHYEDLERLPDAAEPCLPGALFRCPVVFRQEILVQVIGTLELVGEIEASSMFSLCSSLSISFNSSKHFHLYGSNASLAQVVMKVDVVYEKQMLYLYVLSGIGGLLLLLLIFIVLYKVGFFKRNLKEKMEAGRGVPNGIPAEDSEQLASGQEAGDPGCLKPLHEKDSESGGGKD
T2 sequence (P05107 23-769): as the sequence (P05107 23-769, other chains not shown) above

- adhesion of K562 cells stably expressing integrin CD11b/CD18 to fibrinogen (integrin CD11b/CD18; dose-response, increasing amounts of small molecule, TBS++): increased equally well the adhesion
- adhesion of K562 cells stably expressing integrin CD11a/CD18 to ICAM1 (integrin CD11a/CD18): increased equally well the adhesion
SMILES: Cc1ccccc1N1C(=O)/C(=C/C=C/c2ccccc2)SC1=S [IMB-10, reference compound]

- EC50 (integrin CD11b/CD18; secondary screen, read-out: EC50, concentration required for half-maximal increase in cell-adhesion): ~6.7 µM
SMILES: N=C1SC(=Cc2ccco2)C(=O)N1c1nccs1 [Compound 9]

- selectivity for integrin CD11b/CD18 over integrin CD11a/CD18 in cell adhesion (integrin CD11b/CD18; K562 CD11b/CD18 on fibrinogen versus K562 CD11a/CD18 on ICAM1): selectively increased adhesion
SMILES: O=C1CSC(NC(=O)N2c3ccccc3Sc3ccccc32)=N1 [Compound 11]
- neutrophil influx into the peritoneum due to TG injection [1]: reduce leukocyte recruitment
- neutrophil influx into the peritoneum due to TG injection ([1]; listed as compound 11): remarkable decrease
